According to patent publication US9834571B2, “Compounds for inhibiting cell proliferation in EGFR-driven cancers” (ARIAD Pharmaceuticals, Inc., priority 2012, dated 2017):
Read-outs that look alike come from different tables or passages of the source.

Experiments:
[1] = target: EGFR L858R/T790M (Homo sapiens, UniProt P00533, L858R/T790M); experiment: Kinase inhibitory activity against EGFR bearing the L858R/T790M double mutation; assay type: biochemical; conditions: 10 μM ATP, read-out: IC50 for kinase inhibition, EGFR L858R T790M
Chain of EGFR L858R/T790M (P00533 25-1210 T790M/L858R): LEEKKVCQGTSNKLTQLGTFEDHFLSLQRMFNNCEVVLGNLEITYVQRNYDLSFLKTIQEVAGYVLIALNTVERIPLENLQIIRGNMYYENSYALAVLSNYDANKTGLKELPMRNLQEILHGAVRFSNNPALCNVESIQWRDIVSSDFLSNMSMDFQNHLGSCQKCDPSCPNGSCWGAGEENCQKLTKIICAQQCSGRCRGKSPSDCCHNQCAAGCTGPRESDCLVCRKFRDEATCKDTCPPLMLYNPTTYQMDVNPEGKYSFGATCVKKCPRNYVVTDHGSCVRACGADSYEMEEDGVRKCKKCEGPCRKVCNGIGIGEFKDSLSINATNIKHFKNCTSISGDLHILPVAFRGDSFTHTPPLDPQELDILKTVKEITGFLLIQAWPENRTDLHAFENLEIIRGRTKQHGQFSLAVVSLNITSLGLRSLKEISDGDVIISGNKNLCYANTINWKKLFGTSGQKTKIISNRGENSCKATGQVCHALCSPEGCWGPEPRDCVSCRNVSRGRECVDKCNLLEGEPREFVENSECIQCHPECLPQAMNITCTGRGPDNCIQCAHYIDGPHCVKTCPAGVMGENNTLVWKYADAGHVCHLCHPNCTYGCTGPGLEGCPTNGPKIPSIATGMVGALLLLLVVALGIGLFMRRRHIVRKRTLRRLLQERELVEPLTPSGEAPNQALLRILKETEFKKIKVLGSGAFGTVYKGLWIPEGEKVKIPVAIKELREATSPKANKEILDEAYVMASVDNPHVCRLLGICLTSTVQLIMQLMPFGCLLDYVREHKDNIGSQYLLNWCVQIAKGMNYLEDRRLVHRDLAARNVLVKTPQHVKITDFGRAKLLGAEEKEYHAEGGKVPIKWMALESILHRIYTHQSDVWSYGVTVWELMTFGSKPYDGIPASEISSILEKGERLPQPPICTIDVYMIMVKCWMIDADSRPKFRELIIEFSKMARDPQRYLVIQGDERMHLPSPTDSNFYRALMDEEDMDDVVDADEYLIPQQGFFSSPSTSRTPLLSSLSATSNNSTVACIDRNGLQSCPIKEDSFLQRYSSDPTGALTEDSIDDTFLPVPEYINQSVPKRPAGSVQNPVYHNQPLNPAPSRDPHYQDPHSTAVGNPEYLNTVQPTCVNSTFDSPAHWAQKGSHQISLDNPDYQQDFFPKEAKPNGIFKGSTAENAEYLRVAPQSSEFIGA
How it was run: (§1)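 ATP was held at 10 μM while inhibition was measured across a 10-point series capped at 3 μM, single replicates.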

[2] = target: EGFR L858R (Homo sapiens, UniProt P00533, L858R); experiment: Kinase inhibitory activity against EGFR bearing the L858R mutation; assay type: biochemical; conditions: 10 μM ATP, read-out: IC50 for kinase inhibition, EGFR L858R
Chain of EGFR L858R (P00533 25-1210 L858R): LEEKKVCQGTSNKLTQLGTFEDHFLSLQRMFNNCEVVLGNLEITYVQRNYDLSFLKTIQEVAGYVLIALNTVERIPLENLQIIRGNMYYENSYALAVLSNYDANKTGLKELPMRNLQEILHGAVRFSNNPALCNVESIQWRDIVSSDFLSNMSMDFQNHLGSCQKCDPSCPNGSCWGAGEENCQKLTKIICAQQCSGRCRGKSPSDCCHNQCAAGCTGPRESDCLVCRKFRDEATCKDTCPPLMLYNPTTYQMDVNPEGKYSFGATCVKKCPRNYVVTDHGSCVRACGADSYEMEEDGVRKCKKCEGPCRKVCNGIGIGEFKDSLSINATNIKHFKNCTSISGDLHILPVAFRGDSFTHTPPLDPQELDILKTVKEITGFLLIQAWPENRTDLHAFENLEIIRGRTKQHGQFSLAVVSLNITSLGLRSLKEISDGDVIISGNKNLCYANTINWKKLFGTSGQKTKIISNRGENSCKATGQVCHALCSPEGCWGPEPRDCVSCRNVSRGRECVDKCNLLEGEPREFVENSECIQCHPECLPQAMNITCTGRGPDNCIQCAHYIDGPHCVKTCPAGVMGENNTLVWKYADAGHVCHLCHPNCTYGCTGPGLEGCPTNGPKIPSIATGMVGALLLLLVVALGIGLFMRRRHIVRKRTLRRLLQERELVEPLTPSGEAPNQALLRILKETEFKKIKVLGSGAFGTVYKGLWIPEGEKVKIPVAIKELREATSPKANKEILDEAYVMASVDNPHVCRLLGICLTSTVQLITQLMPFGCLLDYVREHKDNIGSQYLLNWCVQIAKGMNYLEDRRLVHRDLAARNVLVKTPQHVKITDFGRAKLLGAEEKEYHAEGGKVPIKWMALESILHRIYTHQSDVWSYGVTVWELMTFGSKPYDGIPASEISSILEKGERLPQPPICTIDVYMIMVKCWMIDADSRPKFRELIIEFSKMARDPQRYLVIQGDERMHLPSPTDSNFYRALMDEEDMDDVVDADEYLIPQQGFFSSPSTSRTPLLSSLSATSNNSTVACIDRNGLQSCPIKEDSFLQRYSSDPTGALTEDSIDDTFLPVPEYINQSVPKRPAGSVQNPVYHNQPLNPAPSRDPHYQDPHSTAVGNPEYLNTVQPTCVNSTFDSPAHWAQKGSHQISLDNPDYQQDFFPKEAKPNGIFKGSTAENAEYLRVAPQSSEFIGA
How it was run: as §1

[3] = tested on: BaF3 cells expressing wildtype EGFR; experiment: Antiproliferative activity (MTT) against control BaF3 cells expressing wildtype EGFR; assay type: cell-based; conditions: Mus musculus
How it was run: (§2)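 In this screen, MTT reduction reported on proliferation of BaF3 cells dependent on mutated EGFR and of matched BaF3 cells expressing wildtype receptor.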

[4] = target: human EGFR (native sequence) (Homo sapiens, UniProt P00533); experiment: Kinase inhibitory activity against human EGFR (native sequence); assay type: biochemical; conditions: 10 μM ATP, read-out: IC50 for kinase inhibition, EGFR
Chain of human EGFR (native sequence) (P00533 25-1210): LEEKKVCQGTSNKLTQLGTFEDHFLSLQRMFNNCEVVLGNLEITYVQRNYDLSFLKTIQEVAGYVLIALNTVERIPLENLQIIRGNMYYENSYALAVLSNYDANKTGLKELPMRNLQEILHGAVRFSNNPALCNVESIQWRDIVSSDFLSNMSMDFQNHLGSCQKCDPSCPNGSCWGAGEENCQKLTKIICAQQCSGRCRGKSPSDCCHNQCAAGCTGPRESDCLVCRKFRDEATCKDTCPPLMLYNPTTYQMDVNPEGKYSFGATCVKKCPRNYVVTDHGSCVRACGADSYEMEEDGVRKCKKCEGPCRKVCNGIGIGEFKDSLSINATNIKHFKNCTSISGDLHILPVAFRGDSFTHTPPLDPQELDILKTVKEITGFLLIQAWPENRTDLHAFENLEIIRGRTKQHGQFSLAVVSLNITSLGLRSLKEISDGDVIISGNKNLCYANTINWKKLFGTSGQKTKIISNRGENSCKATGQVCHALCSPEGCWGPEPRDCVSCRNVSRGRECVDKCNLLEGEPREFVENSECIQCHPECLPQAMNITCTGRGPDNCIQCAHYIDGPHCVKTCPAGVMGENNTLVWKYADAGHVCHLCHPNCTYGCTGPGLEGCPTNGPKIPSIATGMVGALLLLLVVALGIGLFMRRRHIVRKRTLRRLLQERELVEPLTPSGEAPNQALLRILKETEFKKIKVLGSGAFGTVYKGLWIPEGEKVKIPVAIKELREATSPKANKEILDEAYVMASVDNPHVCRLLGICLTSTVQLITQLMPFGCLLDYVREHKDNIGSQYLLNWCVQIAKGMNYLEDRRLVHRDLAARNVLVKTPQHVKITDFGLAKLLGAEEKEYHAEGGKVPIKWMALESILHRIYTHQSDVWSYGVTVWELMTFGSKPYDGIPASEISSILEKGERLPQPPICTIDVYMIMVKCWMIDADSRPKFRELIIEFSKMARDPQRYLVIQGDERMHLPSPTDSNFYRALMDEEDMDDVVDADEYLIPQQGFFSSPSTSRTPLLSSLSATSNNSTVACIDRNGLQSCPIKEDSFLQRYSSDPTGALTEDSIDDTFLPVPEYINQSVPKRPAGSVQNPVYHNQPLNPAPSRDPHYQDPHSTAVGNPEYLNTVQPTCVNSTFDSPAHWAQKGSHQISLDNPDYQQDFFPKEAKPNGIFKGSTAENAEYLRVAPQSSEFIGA
How it was run: as §1

[5] = target: T1, BaF3 cells expressing the target EGFR mutations (Homo sapiens, UniProt P00533, T790M, cells depend on it, form not given); experiment: Antiproliferative activity (MTT) against BaF3 cells expressing the target EGFR mutations; assay type: cell-based; conditions: BAF3 EGFR DEL T790M PURO POOL cells, read-out: IC50, BAF3 EGFR DEL T790M PURO POOL
T1 construct: IC50, BAF3 EGFR DEL T790M PURO POOL; other: BAF3 EGFR DEL T790M PURO POOL cells, MTT; other: BAF3 EGFR DEL T790M PURO POOL cells; MTT
T1 sequence (P00533 with tags, fused parts or gaps DEL746-750/T790M, form open): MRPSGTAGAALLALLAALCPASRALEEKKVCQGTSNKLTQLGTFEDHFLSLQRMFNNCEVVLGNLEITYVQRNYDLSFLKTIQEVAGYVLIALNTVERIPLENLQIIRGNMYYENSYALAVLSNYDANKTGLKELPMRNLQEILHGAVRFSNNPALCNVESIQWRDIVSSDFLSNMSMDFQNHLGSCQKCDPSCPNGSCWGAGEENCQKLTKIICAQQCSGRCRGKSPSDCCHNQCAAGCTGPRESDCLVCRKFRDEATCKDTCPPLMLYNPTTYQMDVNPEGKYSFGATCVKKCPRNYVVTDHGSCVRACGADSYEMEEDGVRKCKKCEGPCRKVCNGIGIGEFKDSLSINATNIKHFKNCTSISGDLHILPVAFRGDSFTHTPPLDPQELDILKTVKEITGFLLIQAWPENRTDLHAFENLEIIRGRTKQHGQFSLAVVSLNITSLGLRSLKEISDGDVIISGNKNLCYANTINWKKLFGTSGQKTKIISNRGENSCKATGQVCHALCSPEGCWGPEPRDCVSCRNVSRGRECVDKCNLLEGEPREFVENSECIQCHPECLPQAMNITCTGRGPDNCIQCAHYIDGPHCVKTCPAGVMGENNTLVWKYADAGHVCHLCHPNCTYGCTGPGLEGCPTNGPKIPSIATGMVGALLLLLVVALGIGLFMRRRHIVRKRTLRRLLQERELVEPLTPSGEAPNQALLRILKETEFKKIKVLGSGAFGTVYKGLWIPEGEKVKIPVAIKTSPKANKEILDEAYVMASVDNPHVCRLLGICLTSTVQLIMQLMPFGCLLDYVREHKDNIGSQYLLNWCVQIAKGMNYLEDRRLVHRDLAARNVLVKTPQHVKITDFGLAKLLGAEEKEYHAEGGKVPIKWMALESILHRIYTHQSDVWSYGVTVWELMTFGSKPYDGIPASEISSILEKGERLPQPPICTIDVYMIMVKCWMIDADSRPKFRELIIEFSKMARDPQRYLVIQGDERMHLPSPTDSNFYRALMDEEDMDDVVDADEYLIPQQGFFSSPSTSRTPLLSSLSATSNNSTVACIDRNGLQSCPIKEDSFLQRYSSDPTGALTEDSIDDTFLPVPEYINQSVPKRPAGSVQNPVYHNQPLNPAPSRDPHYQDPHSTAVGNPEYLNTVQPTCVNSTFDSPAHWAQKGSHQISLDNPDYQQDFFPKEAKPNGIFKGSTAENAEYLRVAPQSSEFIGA
How it was run: as §2

[6] = target: T2, BaF3 cells expressing the target EGFR mutations (Homo sapiens, UniProt P00533, T790M/L858R, cells depend on it); experiment: as above; assay type: cell-based; conditions: BAF3 EGFR L858R-T790M PURO POOL cells, read-out: IC50, BAF3 EGFR L858R-T790M PURO POOL
T2 construct: IC50, BAF3 EGFR L858R-T790M PURO POOL; other: BAF3 EGFR L858R-T790M PURO POOL cells, MTT; IC50, BAF3 EGFR L858R-T790M PURO POOL; other: BAF3 EGFR L858R-T790M PURO POOL cells; MTT
How it was run: as §2

[7] = EGFR L858R/T790M double mutation
[8] = 10 pt curves, 3 μM top concentration

Row | SMILES | IC50 [1, 7] [µM] | IC50 ([2]; EGFR L858R) [µM] | IC50 ([4]; human EGFR native sequence) [µM] | GI50 [5] [µM] | GI50 [6] [µM] | IC50 [1, 8] [µM] | IC50 [2, 8] [µM] | IC50 [4, 8] [µM] | IC50 ([3]; BAF3 PARENTAL cells (control)) [µM] | IC50 ([3]; BAF3 parental cells) [µM]
1 | COc1ccc(NC(=O)/C=C/C(=O)NCCN(C)C)cc1Nc1ncc(Cl)c(Nc2ccccc2P(C)(C)=O)n1 [Example 58, N1-(3-((5-chloro-4-((2-(dimethylphosphoryl)phenyl)amino)pyrimidin-2-yl)amino)-4-methoxyphenyl)-N4-(2-(dimethylamino)ethyl)fumaramide] | < 0.05 | < 0.05 | < 0.05 | ≥ 0.25 | ≥ 0.25 | – | – | – | ≥ 0.25 | –
2 | COc1ccc(NC(=O)/C=C/CN2CCCC2)cc1Nc1ncc(Cl)c(Nc2ccccc2P(C)(C)=O)n1 [Example 95, (E)—N-(3-((5-chloro-4-((2-(dimethylphosphoryl)phenyl)amino)pyrimidin-2-yl)amino)-4-methoxyphenyl)-4-(pyrrolidin-1-yl)but-2-enamide] | < 0.05 | < 0.05 | ≥ 0.25 | 0.05 to 0.1 | ≥ 0.25 | – | – | – | ≥ 0.25 | –
3 | C=CC(=O)Nc1cc(Nc2ncc(Cl)c(Nc3ccccc3P(C)(C)=O)n2)c(OC)cc1OCCCN1CCOCC1 [Example 5, N-(5-((5-chloro-4-((2-(dimethylphosphoryl)phenyl)amino)pyrimidin-2-yl)amino)-4-methoxy-2-(3-morpholinopropoxy)phenyl)acrylamide] | < 0.05 | < 0.05 | 0.101 to 0.25 | 0.101 to 0.25 | 0.101 to 0.25 | – | – | – | ≥ 0.25 | –
4 | COCC#CC(=O)Nc1cc(Nc2ncc(Cl)c(Nc3ccccc3P(C)(C)=O)n2)c(OC)cc1N1CCC(N(C)C)C1 (stereo not drawn) [Example 111, N-(5-((5-chloro-4-((2-(dimethylphosphoryl)phenyl)amino)pyrimidin-2-yl)amino)-2-(3-(dimethylamino)pyrrolidin-1-yl)-4-methoxyphenyl)-4-methoxybut-2-ynamide] | – | – | – | < 0.05 | < 0.05 | < 0.05 | < 0.05 | < 0.05 | – | ≥ 0.25
5 | C=C(CN1CCN(CCO)CC1)C(=O)Nc1ccc(OC)c(Nc2ncc(Cl)c(Nc3ccccc3P(C)(C)=O)n2)c1 [Example 52, N-(3-((5-chloro-4-((2-(dimethylphosphoryl)phenyl)amino)pyrimidin-2-yl)amino)-4-methoxyphenyl)-2-((4-(2-hydroxyethyl)piperazin-1-yl)methyl)acrylamide] | < 0.05 | < 0.05 | < 0.05 | < 0.05 | < 0.05 | – | – | – | ≥ 0.25 | –

The next lines start with results.

Row | IC50 [1, 7] [µM] | IC50 ([2]; EGFR L858R) [µM] | IC50 ([4]; human EGFR native sequence) [µM] | GI50 [5] [µM] | GI50 [6] [µM] | IC50 [1, 8] [µM] | IC50 [2, 8] [µM] | IC50 [4, 8] [µM] | SMILES | IC50 ([3]; BAF3 PARENTAL cells (control)) [µM] | IC50 ([3]; BAF3 parental cells) [µM]
6 | – | – | – | < 0.05 | 0.05 to 0.1 | < 0.05 | < 0.05 | < 0.05 | CC#CC(=O)Nc1cc(Nc2ncc(Cl)c(Nc3ccccc3P(C)(C)=O)n2)c(OC)cc1N1CCC(N(C)C)C1 (stereo not drawn) [Example 112, N-(5-((5-chloro-4-((2-(dimethylphosphoryl)phenyl)amino)pyrimidin-2-yl)amino)-2-(3-(dimethylamino)pyrrolidin-1-yl)-4-methoxyphenyl)but-2-ynamide] | – | ≥ 0.25
7 | – | – | – | < 0.05 | < 0.05 | < 0.05 | < 0.05 | < 0.05 | C=CC(=O)Nc1cc(Nc2ncc(Cl)c(Nc3ccccc3P(C)(C)=O)n2)c(CC)cc1C#CCN(C)C [Example 152, N-(5-((5-chloro-4-((2-(dimethylphosphoryl)phenyl)amino)pyrimidin-2-yl)amino)-2-(3-(dimethylamino)prop-1-yn-1-yl)-4-ethylphenyl)acrylamide] | – | ≥ 0.25
8 | – | – | – | ≥ 0.25 | ≥ 0.25 | ≥ 0.25 | ≥ 0.25 | ≥ 0.25 | C=CC(=O)Nc1ccc(OCCN(C)C)c(Nc2ncc(Cl)c(Nc3ccccc3P(C)(C)=O)n2)c1 [Example 117, N-(3-((5-chloro-4-((2-(dimethylphosphoryl)phenyl)amino)pyrimidin-2-yl)amino)-4-(2-(dimethylamino)ethoxy)phenyl)acrylamide] | – | ≥ 0.25
